The values below come from article PMC3307802 (MedChemComm, 2011).

For experiment [1], the system named is cocaine-induced drug-seeking. The conditions noted are these: rats; dose of 0.3 mg/kg or greater; cited from earlier work.
Experiment [2] relates to serotonin 5HT2A receptors. The note with it: cited from earlier work.
Experiment [3] has as its target T1, KOP receptors (Homo sapiens, UniProt P41145). The note with it: cited from earlier work.
The test system of another experiment is humans. The conditions noted are these: vaporized and inhaled; cited from earlier work.
The target in experiment [4] is T1, KOP receptors. Put plainly: biochemical. Format: biochemical.
Experiment [5] concerns KOP receptor. The note with it: cited from earlier work.
The target in experiment [6] is KOP receptor. The conditions noted are these: cited from earlier work. The source holds these as a separate data set.
The target in experiment [7] is T1, KOP receptors. Format: binding.
In experiment [8] the test system is KOP receptor. Put plainly: Previously published potency/efficacy at KOP receptors. The note with it: relative to 1. The experiment is classed as biochemical.

Structures are written as SMILES. Some results are limits rather than exact numbers.

Usually EC50 stands for the concentration needed to bring the measured effect to its halfway point.

T1 sequence (P41145 whole entry): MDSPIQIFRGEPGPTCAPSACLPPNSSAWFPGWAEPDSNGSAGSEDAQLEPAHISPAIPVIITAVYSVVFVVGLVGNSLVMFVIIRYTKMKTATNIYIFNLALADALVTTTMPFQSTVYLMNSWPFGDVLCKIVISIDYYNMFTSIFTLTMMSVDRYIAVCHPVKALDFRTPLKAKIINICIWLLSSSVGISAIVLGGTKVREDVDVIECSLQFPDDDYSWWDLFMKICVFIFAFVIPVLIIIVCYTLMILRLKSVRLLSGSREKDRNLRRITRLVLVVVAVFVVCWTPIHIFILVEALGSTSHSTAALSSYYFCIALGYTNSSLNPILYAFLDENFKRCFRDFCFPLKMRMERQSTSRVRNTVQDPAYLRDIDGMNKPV

Regarding `COC(=O)[C@@H]1C[C@H](OC(C)=O)C(=O)[C@H]2[C@@]1(C)CC[C@H]1C(=O)O[C@H](c3ccoc3)C[C@]21C` [Compound 1, salvinorin A], the “effect on cocaine-primed reinstatement of drug seeking” value in [1] was “attenuate cocaine-primed reinstatement of drug seeking”. Besides, in experiment [2], the “activity at serotonin 5HT2A receptors” value is “does not have activity”. For the same compound, the “ED50 ± SD (κ)” value at KOP receptors [3] is 40 ± 10 nM. Also, the “active dose in humans (hallucinogen)” value with humans was 4.5 to 21 µg/kg.

Take `CCOCO[C@H]1C[C@@H](C(=O)OC)[C@]2(C)CC[C@H]3C(=O)O[C@H](c4ccoc4)C[C@]3(C)[C@H]2C1=O` [Compound 4]: the EC50 on KOP receptors [4] was 0.65 ± 0.17 nM.

The compound `COC(=O)[C@@H]1C[C@H](O[C@@H]2CCCCO2)C(=O)[C@H]2[C@@]1(C)CC[C@H]1C(=O)O[C@H](c3ccoc3)C[C@]21C` [Compound 5] had an EC50 at KOP receptors [4] of 60 ± 6 nM.

Turning to `COC(=O)[C@@H]1C[C@H](O[C@@H]2CCCO2)C(=O)[C@H]2[C@@]1(C)CC[C@H]1C(=O)O[C@H](c3ccoc3)C[C@]21C` [Compound 7a], at KOP receptors [4], the EC50 was found to be 1220 ± 230 nM and the “fold less potent than 1 as agonist” value was “approximately 30 fold”.

Take `COC(=O)[C@@H]1C[C@H](O[C@H]2CCCO2)C(=O)[C@H]2[C@@]1(C)CC[C@H]1C(=O)O[C@H](c3ccoc3)C[C@]21C` [Compound 7b]: at KOP receptors [4], the EC50 came to 690 ± 80 nM and the “fold less potent than 1 as agonist” value is given as ~17 fold.

On to `CCOC(=O)O[C@H]1C[C@@H](C(=O)OC)[C@]2(C)CC[C@H]3C(=O)O[C@H](c4ccoc4)C[C@]3(C)[C@H]2C1=O` [Compound 11], for which the “affinity at the KOP receptor vs. [3H]bremazocine” value with KOP receptor [5] (vs. [3H]bremazocine) was “no appreciable affinity”. Moreover, in the experiment with KOP receptor [5] (vs. [3H]diprenorphine), the “affinity at the KOP receptor vs. [3H]diprenorphine” value is reported as “no appreciable affinity”.

As for `CCNC(=O)O[C@H]1C[C@@H](C(=O)OC)[C@]2(C)CC[C@H]3C(=O)O[C@H](c4ccoc4)C[C@]3(C)[C@H]2C1=O` [Compound 12], at KOP receptor [6] (read-out: KOP receptor potency EC50), the EC50 is > 1000 nM.

Regarding `COCO[C@H]1C[C@@H](C(=O)OC)[C@]2(C)CC[C@H]3C(=O)O[C@H](C(=O)N4CCCCC4)C[C@]3(C)[C@H]2C1=O` [Compound 14], at KOP receptors [7], the “KOP binding affinity worse compared to 3” value was “roughly 31 fold” and the “KOP receptor binding affinity improved over that of 15” value is recorded as “approximately 2 fold”. Moreover, at KOP receptors [4], it took 1930 ± 239 nM to reach a half-maximal effect (EC50), the “fold less potent than 1 as agonist” value stood at 48 fold, the “fold less potent than 3 as agonist” value is recorded as “roughly 322 fold” and the “improvement in potency over 15” value is recorded as “approximately 2.5 fold”.

Turning to `COC(=O)[C@@H]1C[C@H](OC(C)=O)C(=O)[C@H]2[C@@]1(C)CC[C@H]1C(=O)O[C@H](C(=O)N3CCCCC3)C[C@]21C` [Compound 15, reference compound], the “fold less potent than 1 as agonist (previously published analog)” value in the experiment on KOP receptor [8] is “approximately 125 fold”. The “potency at KOP receptors ED50” value with KOP receptor [6] was 5110 ± 1800 nM.
